Measured values from PubChem BioAssay (NCI).
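96-well plates; 48 h exposure; 5 concentrations. Endpoints by linear interpolation between flanking doses. Not reached: highest tested concentration assigned. At the GI50, growth is halved. At the TGI there is no net growth.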

Assays:
Experiment in all cases: inhibition of tumour cell growth, NCI panel, 48 h
MALME-3M melanoma = test system: MALME-3M melanoma
NCI-H226 lung = test system: NCI-H226 lung
OVCAR-3 ovarian = test system: OVCAR-3 ovarian
SF-539 CNS = test system: SF-539 CNS
SK-MEL-2 melanoma = test system: SK-MEL-2 melanoma
SK-OV-3 ovarian = test system: SK-OV-3 ovarian
UACC-257 melanoma = test system: UACC-257 melanoma
BT-549 breast = test system: BT-549 breast
HS 578T breast = test system: HS 578T breast
A498 renal = test system: A498 renal

Compound	TGI (MALME-3M melanoma) [µM]	TGI (NCI-H226 lung) [µM]	TGI (OVCAR-3 ovarian) [µM]	TGI (SF-539 CNS) [µM]	TGI (SK-MEL-2 melanoma) [µM]	TGI (SK-OV-3 ovarian) [µM]	TGI (UACC-257 melanoma) [µM]	GI50 (BT-549 breast) [µM]	TGI (BT-549 breast) [µM]	GI50 (HS 578T breast) [µM]	TGI (HS 578T breast) [µM]	GI50 (MALME-3M melanoma) [µM]	GI50 (NCI-H226 lung) [µM]	GI50 (OVCAR-3 ovarian) [µM]	GI50 (SF-539 CNS) [µM]	GI50 (SK-MEL-2 melanoma) [µM]	GI50 (SK-OV-3 ovarian) [µM]	GI50 (UACC-257 melanoma) [µM]	TGI (A498 renal) [µM]	GI50 (A498 renal) [µM]
NCCCCCCNCc1cccc2ccccc12	35.6	> 100	> 100	> 100	> 100	> 100	> 100													
CC1=C[C@H]2C[C@H](C)[C@H]3CC[C@H](C)[C@]4(C1)C(=O)C(O)=C(C)C(=O)[C@@]324	80.7	> 100	64.6	> 100	> 100	> 100	> 100	46	> 100	24.7	67.5	23.3	33	20	52.6	32.3	45.1	59.2		
COC1OC(C)C2OC(C)(C)OC2C1OC(C)=O (centres undefined)	> 100	> 100	> 100	> 100			> 100												> 100	
Cc1ccc(C)c(NC(=O)CC2SC(=Nc3ccccc3Cl)NC2=O)c1 (centres undefined)	> 100	> 100	> 100	> 100	> 100	> 100	> 100												> 100	
C=CCOC(=O)C1CCC(=O)N1C(=O)C(Cl)Cl (centres undefined)	> 100	> 100	> 100		> 100	> 100	> 100												> 100	
COc1cc2c(cc1C1=NC(C)(C)CO1)OCO2	> 100	> 100	> 100	> 100	> 100	> 100	> 100													
CN(C)CCNC(=O)c1cccc2ccc(-c3ccc(-c4ccccc4)cc3)nc12	3.61	30.1	12	3.31	32.7	31.5	3.58												11	
CCn1c2c(c3ccccc31)C(c1ccccc1)CC1C(=O)N(c3ccccc3)C(=O)C21 (centres undefined)	52.4	> 100	> 100	> 100	> 100	> 100	> 100												30.6	
CCCCCCCCCCCCCC(=O)CSCCNC(=O)CCNC(=O)[C@@H](O)C(C)(C)COP(=O)(O)OP(=O)(O)OCC1OC(n2cnc3c(N)ncnc32)C(O)C1OP(=O)(O)O (some centres undefined)	34.6	35.7	> 100	29.8	33.5	27.8	36.1												35.5	
COc1ccccc1NS(=O)(=O)c1ccc2oc(SC(C)C)nc2c1	37.5	43.9	40.4	56.1	61.5	> 100	19.1			33.6	> 100	12.9	10.3	19.3	18.6	15.6	33.5	1.76	61.7	23.3
CCOC(=O)C(CNc1ccc(O)cc1)NC(=O)c1ccccc1 (centres undefined)	> 100	> 100	> 100	> 100	> 100	> 100	> 100												> 100	
CCN1C[C@]2(COC)[C@H](O)C[C@H](OC)[C@]34C1[C@H]([C@H](OC)[C@H]23)[C@]1(OC(C)=O)[C@H]2[C@@H](OC(=O)c3ccccc3)[C@](O)(C[C@H]24)[C@@H](OC)[C@@H]1O	> 100	> 100		> 100	> 100	> 100	> 100		> 100		> 100								> 100	
CC(C)(C)OC(=O)c1cccnc1/C=N/O	> 100	> 100	> 100	> 100	> 100	> 100	> 100													
C/C=C/COC(=O)CO[N+](=O)[O-]	> 100	> 100	> 100	> 100	> 100	> 100	> 100													
C#CC1(O)CCC2[C@@H]3CCc4cc(Oc5nc(F)nc(-c6c7ccccc7cn6C)n5)ccc4C3CC[C@@]21C (some centres undefined)	> 100	> 100	> 100	> 100	> 100	> 100	> 100												> 100	
Cn1c(=O)c2[nH]cnc2n(CC(N)=O)c1=O	> 100		> 100	> 100	> 100	> 100													> 100	
CCN(CC)CCn1[nH]c2c3ccc(=O)cc3sc3c(NCCN)ccc1c32	2.73		8.17	1.72	2.69	3.74	4.01												3.32	
N#Cc1c(N)nc(NCc2ccccc2)c(C#N)c1-c1ccc(Cl)cc1Cl	> 100	> 100	> 100	> 100	> 100	> 100	> 100			85.7	> 100	> 63.1	> 100	> 64.2	> 100	> 77.2	> 100	> 100	> 100	> 100
CC(=O)N(O)Cc1ccccc1	> 100	> 100	> 100	> 100		> 100	> 100													
S=C=NCCc1ccccc1	2.51	2.88	2.09	0.532	0.928	3.24	2.75												2	
N#Cc1ccc2cc3c(cc2c1)OCO3		> 100	> 100	> 100	> 100	> 100													> 100	

Compound	TGI (MALME-3M melanoma) [µM]	TGI (NCI-H226 lung) [µM]	TGI (OVCAR-3 ovarian) [µM]	TGI (SF-539 CNS) [µM]	TGI (SK-MEL-2 melanoma) [µM]	TGI (SK-OV-3 ovarian) [µM]	TGI (UACC-257 melanoma) [µM]	GI50 (BT-549 breast) [µM]	TGI (BT-549 breast) [µM]	GI50 (HS 578T breast) [µM]	TGI (HS 578T breast) [µM]	GI50 (MALME-3M melanoma) [µM]	GI50 (NCI-H226 lung) [µM]	GI50 (OVCAR-3 ovarian) [µM]	GI50 (SF-539 CNS) [µM]	GI50 (SK-MEL-2 melanoma) [µM]	GI50 (SK-OV-3 ovarian) [µM]	GI50 (UACC-257 melanoma) [µM]	TGI (A498 renal) [µM]	GI50 (A498 renal) [µM]
C#COc1cccc(Nc2ncnc3cc(NC(=O)[C@H](C)Cl)ccc23)c1	> 62.5	> 62.5	> 62.5	> 62.5		> 62.5	> 62.5	3.22	> 62.5	2.51	> 62.5	4.07	24.6	2.17	2.85		13	> 62.5	34.5	1.73
C#CCN(C(=O)C(F)(F)F)c1ccc(C(=O)c2ccc(N(CC#C)C(=O)C(F)(F)F)cc2)cc1	> 100		88.6	> 100	87.9		86.6													
COc1cc(C2C3=C(COC3=O)N(CCO)c3cc4c(cc32)OCO4)cc(OC)c1O (centres undefined)	> 50	> 50	2.22	> 13.6		> 26.7		2.28	> 34.3	1.3	4.59	1.96	3.72	0.982	1.47		2.03		3.92	1.16
O=c1[nH]c(=O)n(C2CC(O)C(CO)O2)cc1C#Cc1ccc(F)cc1 (centres undefined)	> 100	> 100	> 100	> 100	> 100	> 100	> 100													
COC(=O)/C=c1\s/c(=C\C(=O)OC)c2ccccc12	> 100	> 100	> 100	> 100	> 100	> 100	> 100												> 100	
CCCCCCCC(=O)OCC(=O)[C@]1(O)Cc2c(O)c3c(c(O)c2[C@@H](OC2CC(N)C(O)C(C)O2)C1)C(=O)c1c(OC)cccc1C3=O (some centres undefined)				1		0.879									0.166		0.135		0.951	0.215
O=C1c2ccccc2C(=O)c2c(NCC3CO3)ccc(NCC3CO3)c21 (centres undefined)	18.3	35.4	15.1	6.82		> 47	23.9		14.1		15.3								> 83.9	
CN(C)c1ccc(/C=c2/c3ccccc3n3c2c2cc(F)ccc2[n+]3C)cc1	7.54		12.5	7.49	11.1	> 100	11.8	2.65	13.1	3.99	25.4	1.87		2.98	2.59	3.54	34.1	4.31	17.4	5.24
Clc1ccccc1C(Nc1ncccn1)Nc1ncccn1		> 100	> 100	> 100	> 100	> 100	> 100		> 100		> 100								> 100	
CCOC(=O)/C(=C/c1ccc(N(CCC#N)CCC#N)cc1C)NC(=O)/C=C/c1ccccc1	> 100	> 100	> 100	> 100	> 100	> 100	> 100												> 100	
O=C(CC(=O)c1cccc(Cl)c1)c1cccc(Cl)c1	> 100	> 100	6.09	> 100	> 100	> 100	> 100			3.88	> 100	2.75	2.88	1.67	2.91	4.75	3.85	5.99	> 100	5.07
O=c1cc(-c2ccccc2)oc2cc(OC/C(=N/O)c3ccc(F)cc3)ccc12		> 50	35.6	26	> 50	> 50	> 50	15.1	36.9				27.6	11.4	11.5	20.2	47.9	35.3		
Cc1cc(=O)[nH]c(CNC(=O)c2cccc(C(=O)NCc3cc(=O)[nH]c(C)n3)c2)n1	> 100	> 100	> 100	> 100	> 100	> 100	> 100												> 100	
Oc1[nH]c2ccccc2c1N=Nc1c(F)c(F)c(F)c(F)c1F		> 100	> 100	> 100	> 100	> 100	> 71.5		> 100		> 100								> 100	
CCOC(=O)C1([Se]c2ccccc2)CCCC1=O (centres undefined)	> 100	74.8	98	43.6	> 100	> 100	> 100												> 100	
O=C1C2C3C=C4c5ccccc5N(c5ccccc5)C4(C2C(=O)N1c1ccc(Br)cc1)[C@H]1C(=O)N(c2ccc(Br)cc2)C(=O)[C@@H]31 (some centres undefined)	> 100	> 100	> 100	> 100	> 100	> 100	> 100												> 100	
O=C(c1ccccc1)n1c(-c2ccccc2)cs/c1=N\S(=O)(=O)c1ccc(N2N=C3c4ccccc4CC3C2c2cccs2)cc1 (centres undefined)		85.2	> 100	> 100	> 100	> 100	> 100	67.9	> 100	17	> 100		30.1	55.2	58.6	> 100	> 100	45.7		
Cc1nc2sccn2c1C(=O)NC(=O)Nc1ccc(Cl)cc1	> 100	> 100	> 100	> 100	> 100		> 100												> 100	
CC[N+](C)(CC)CC(C)(C)C(=O)/C=C/c1ccc(/C=C/C(=O)C(C)(C)C[N+](C)(CC)CC)cc1	> 100	> 100	> 100	> 100		> 100	> 100												> 100	
COC1C2c3cc4c(cc3CC(C#N)(c3ccccc32)N1C(=O)c1ccccc1)OCO4 (centres undefined)	> 100	> 100	> 100	> 100	> 100	> 100	> 100													
Cc1ccc(-c2nc([P+](c3ccccc3)(c3ccccc3)c3ccccc3)c(Nc3ccccc3)o2)cc1	0.801		0.886	2.91	2.42	3.08	2.7	1.53	3.02	1.27	3.31	0.25		0.288	1.54	0.808	1.44	0.831	2.46	1.12
